# In article PMC7523345 (Investigational new drugs, 2018):
# Assay: Phase I dose escalation study: safety, tolerability, DLT and MTD
# Assay type: in vivo
smiles,measurement,setting,value
Cc1cccc2c1NC(=O)[C@@H](NC(=O)[C@H](CCC(F)(F)F)[C@H](CCC(F)(F)F)C(N)=O)N=C2c1cccc(F)c1 [BMS-986115],"Abdominal pain (drug related AE, all grades)",Arm B BIW 2 mg (N = 2),1 (50) n (%)
same,"Blood creatinine increased (drug related AE, all grades)",Arm B BIW 2 mg (N = 2),0 n (%)
same,"Colitis (drug related AE, Grade 3 and 4)",Arm B BIW 2 mg (N = 2),0 n (%)
same,"Cough (drug related AE, Grade 3 and 4)",Arm B BIW 2 mg (N = 2),0 n (%)
same,"Cough (drug related AE, all grades)",Arm B BIW 2 mg (N = 2),0 n (%)
same,"Decreased Appetite (drug related AE, Grade 3 and 4)",Arm B BIW 2 mg (N = 2),0 n (%)
same,"Decreased Appetite (drug related AE, all grades)",Arm B BIW 2 mg (N = 2),0 n (%)
same,"Dehydration (drug related AE, Grade 3 and 4)",Arm B BIW 2 mg (N = 2),0 n (%)
same,"Dehydration (drug related AE, all grades)",Arm B BIW 2 mg (N = 2),0 n (%)
same,"Dermatitis acneiform (drug related AE, all grades)",Arm B BIW 2 mg (N = 2),0 n (%)
same,"Diarrhoea (drug related AE, Grade 3 and 4)",Arm B BIW 2 mg (N = 2),1 (50) n (%)
same,"Diarrhoea (drug related AE, all grades)",Arm B BIW 2 mg (N = 2),1 (50) n (%)
same,"Dry mouth (drug related AE, all grades)",Arm B BIW 2 mg (N = 2),0 n (%)
same,"Dry skin (drug related AE, all grades)",Arm B BIW 2 mg (N = 2),0 n (%)
same,"Dysgeusia (drug related AE, all grades)",Arm B BIW 2 mg (N = 2),0 n (%)
same,"Dyspepsia (drug related AE, all grades)",Arm B BIW 2 mg (N = 2),1 (50) n (%)
same,"Dysphonia (drug related AE, all grades)",Arm B BIW 2 mg (N = 2),0 n (%)
same,"Fatigue (drug related AE, Grade 3 and 4)",Arm B BIW 2 mg (N = 2),0 n (%)
same,"Fatigue (drug related AE, all grades)",Arm B BIW 2 mg (N = 2),1 (50) n (%)
same,"Flatulence (drug related AE, all grades)",Arm B BIW 2 mg (N = 2),0 n (%)
same,"Hypocalcaemia (drug related AE, Grade 3 and 4)",Arm B BIW 2 mg (N = 2),0 n (%)
same,"Hypocalcaemia (drug related AE, all grades)",Arm B BIW 2 mg (N = 2),0 n (%)
same,"Hypokalaemia (drug related AE, Grade 3 and 4)",Arm B BIW 2 mg (N = 2),0 n (%)
same,"Hypokalaemia (drug related AE, all grades)",Arm B BIW 2 mg (N = 2),0 n (%)
same,"Hyponatraemia (drug related AE, Grade 3 and 4)",Arm B BIW 2 mg (N = 2),0 n (%)
same,"Hyponatraemia (drug related AE, all grades)",Arm B BIW 2 mg (N = 2),0 n (%)
same,"Hypophosphataemia (drug related AE, Grade 3 and 4)",Arm B BIW 2 mg (N = 2),1 (50) n (%)
same,"Hypophosphataemia (drug related AE, all grades)",Arm B BIW 2 mg (N = 2),1 (50) n (%)
same,"Ileus (drug related AE, Grade 3 and 4)",Arm B BIW 2 mg (N = 2),0 n (%)
same,"Increased upper airway secretion (drug related AE, all grades)",Arm B BIW 2 mg (N = 2),0 n (%)
same,"Laryngeal pain (drug related AE, all grades)",Arm B BIW 2 mg (N = 2),0 n (%)
same,"Leucocytosis (drug related AE, Grade 3 and 4)",Arm B BIW 2 mg (N = 2),0 n (%)
same,"Mouth ulceration (drug related AE, all grades)",Arm B BIW 2 mg (N = 2),0 n (%)
same,"Nausea (drug related AE, Grade 3 and 4)",Arm B BIW 2 mg (N = 2),0 n (%)
same,"Nausea (drug related AE, all grades)",Arm B BIW 2 mg (N = 2),1 (50) n (%)
same,"Pruritus (drug related AE, Grade 3 and 4)",Arm B BIW 2 mg (N = 2),0 n (%)
same,"Pruritus (drug related AE, all grades)",Arm B BIW 2 mg (N = 2),0 n (%)
same,"Pulmonary embolism (drug related AE, Grade 3 and 4)",Arm B BIW 2 mg (N = 2),0 n (%)
same,"Rash (drug related AE, all grades)",Arm B BIW 2 mg (N = 2),0 n (%)
same,"Rash maculopapular (drug related AE, all grades)",Arm B BIW 2 mg (N = 2),0 n (%)
same,"Sinusitis (drug related AE, all grades)",Arm B BIW 2 mg (N = 2),0 n (%)
same,"Urticaria (drug related AE, Grade 3 and 4)",Arm B BIW 2 mg (N = 2),0 n (%)
same,"Vision blurred (drug related AE, all grades)",Arm B BIW 2 mg (N = 2),0 n (%)
same,"Vomiting (drug related AE, Grade 3 and 4)",Arm B BIW 2 mg (N = 2),0 n (%)
same,"Vomiting (drug related AE, all grades)",Arm B BIW 2 mg (N = 2),0 n (%)
same,"Weight decreased (drug related AE, all grades)",Arm B BIW 2 mg (N = 2),0 n (%)
same,No. of patients with DLTs,"Arm B BIW 2 mg, 2 DLT evaluable patients",0
same,"Abdominal distension (drug related AE, all grades)",Arm B BIW 4 mg (N = 2),1 (50) n (%)
same,"Abdominal pain (drug related AE, Grade 3 and 4)",Arm B BIW 4 mg (N = 2),0 n (%)
same,"Abdominal pain (drug related AE, all grades)",Arm B BIW 4 mg (N = 2),0 n (%)
same,"Blood creatinine increased (drug related AE, all grades)",Arm B BIW 4 mg (N = 2),0 n (%)
same,"Colitis (drug related AE, Grade 3 and 4)",Arm B BIW 4 mg (N = 2),0 n (%)
same,"Cough (drug related AE, Grade 3 and 4)",Arm B BIW 4 mg (N = 2),0 n (%)
same,"Cough (drug related AE, all grades)",Arm B BIW 4 mg (N = 2),0 n (%)
same,"Decreased Appetite (drug related AE, Grade 3 and 4)",Arm B BIW 4 mg (N = 2),0 n (%)
same,"Decreased Appetite (drug related AE, all grades)",Arm B BIW 4 mg (N = 2),0 n (%)
same,"Dehydration (drug related AE, Grade 3 and 4)",Arm B BIW 4 mg (N = 2),0 n (%)
same,"Dehydration (drug related AE, all grades)",Arm B BIW 4 mg (N = 2),0 n (%)
same,"Dermatitis acneiform (drug related AE, all grades)",Arm B BIW 4 mg (N = 2),0 n (%)
same,"Diarrhoea (drug related AE, Grade 3 and 4)",Arm B BIW 4 mg (N = 2),0 n (%)
same,"Diarrhoea (drug related AE, all grades)",Arm B BIW 4 mg (N = 2),0 n (%)
same,"Dry mouth (drug related AE, all grades)",Arm B BIW 4 mg (N = 2),0 n (%)
same,"Dry skin (drug related AE, all grades)",Arm B BIW 4 mg (N = 2),0 n (%)
same,"Dysgeusia (drug related AE, all grades)",Arm B BIW 4 mg (N = 2),1 (50) n (%)
same,"Dyspepsia (drug related AE, all grades)",Arm B BIW 4 mg (N = 2),0 n (%)
same,"Dysphonia (drug related AE, all grades)",Arm B BIW 4 mg (N = 2),0 n (%)
same,"Fatigue (drug related AE, Grade 3 and 4)",Arm B BIW 4 mg (N = 2),0 n (%)
same,"Fatigue (drug related AE, all grades)",Arm B BIW 4 mg (N = 2),1 (50) n (%)
same,"Flatulence (drug related AE, all grades)",Arm B BIW 4 mg (N = 2),1 (50) n (%)
same,"Hypocalcaemia (drug related AE, Grade 3 and 4)",Arm B BIW 4 mg (N = 2),0 n (%)
same,"Hypocalcaemia (drug related AE, all grades)",Arm B BIW 4 mg (N = 2),0 n (%)
